Laboratory results: patent US12606537B2, “Thiophene derivatives” (priority 2019, dated 2026)
Read-outs that look alike come from different tables or passages of the source.

What was measured:
[1] = target: T1, interaction of the PAS B domains of HIF-2α and HIF-1β (Homo sapiens, UniProt Q99814); assay: AlphaScreen protein protein interaction assay; format: biochemical
T1 construct: His6Gb1-TEV-GEFKGL-HIF2α (240-350aa)-G; His6 (N); Gb1 (protein G B1 domain) (N); TEV site (N)
Method: For the assessment of functional disruption of the interaction of the PAS B domains of HIF-2α and HIF-1β an AlphaScreen assay was set-up. The assay was performed in 384 well light gray Perkin Elmer microtiter plates in a total volume of 7 μl. […] The detection of the protein protein interaction was performed by adding AlphaLISA® Anti-FLAG Acceptor beads (fc 20 μg/mL) and AlphaScreen® Nickel Chelate Donor beads (fc 9 μg/mL) (both Perkin Elmer) and the reaction was incubated for 240 min at 23° C. in the dark. If donor and acceptor beads get in close proximity to each other caused by interaction of HIF2alpha PAS B with HIF-1ß PAS B domain it results in a luminescence signal at 615 nm after excitation at 680 nm. The PPI disruption activity of a compound was calculated directly from the loss in Alphascreen signal. The AlphaScreen signal was measured with an Envision multimode reader (Perkin Elmer LAS Germany GmbH). The control value used was the inhibitor-free reaction. The pharmacological zero value used was determined in the absence of HIF-1ß. The inhibitory values (IC50) were calculated using Assay analyser from GeneData.

HIF2α-HIF1β complex = assay: Cellular mechanistic assay: 786-O HRE-luc2P reporter assay; format: cell-based, human
Method: This reporter assay was designed to monitor binding of the HIF2α-HIF1β complex to specific DNA fragment called hypoxia response element (HRE) in physiologically relevant cell line. […] HRE is present in promoters of various genes regulated by hypoxia inducible factors. […] As a result, this reporter assay allows monitoring of HIF2α-HIF1β activity by determining the activity of produced luciferase. Cell culture is performed in RPMI media supplemented with 10% FBS, Sodium Pyruvate, Penicillin/Streptomycin, Glutamine, 200 μg/mL Hygromycin Gold.
The assay was performed in 384 well white, opaque microtiterplate with transparent bottom (Greiner Bio-one, Frickenhausen). […] 50 μl of cell suspension (2000 cells) per well were dispensed in microtiter plates and incubated over night at 37° C. in a 5% CO2 incubator. Compounds were added with Labcyte Echo dispenser (fc 0.3% DMSO, 9 concentrations dilution raw starting at 30 μM). Plates were incubated for 48 h at 37° C. in a 5% CO2 incubator. After this 45 μl of prewarmed ONE-Glo™ EX Reagent were added per well. Plates were placed on an orbital shaker at 1200 rpm for 3 minutes. Plates were sealed and luminescence was measured a Tecan Spark 20M microplate reader (end-point measurement with 0.1 second reading time). Values were normalized to DMSO ctrl and wells without cells (only medium ctrl). Decrease in luminescence directly correlates with inhibition of HIF2α activity. EC50 values and % of effect values were calculated fitting a variable-slope sigmoidal function using Ryvu Therapeutics (formerly Selvita S.A.) DRC application or GraphPad Prism software.

HIF2a (240-350)-G = target: T2, HIF2a (240-350)-G (Homo sapiens, UniProt Q99814); assay: ITC (isothermal titration calorimetry) binding
T2 construct: The protein, HIF2a (240-350)-G, was prepared by recombinant overexpression; made in house
Method: ITC measurements were performed with a VP-ITC microcalorimeter from MicroCal/Malvern (UK). For all titration experiments the protein and the respective compounds were formulated in 30 mM HEPES buffer pH 7.5, 150 mM NaCl and 5 mM ß-mercaptoethanol. The protein, HIF2a (240-350)-G, was prepared by recombinant overexpression and multistep chromatography purification. Compounds were used from concentrated DMSO stock solutions. The final protein concentration in the injection syringe was 100 μM. Ligand stock solutions of 10 mM in DMSO were diluted to 10 μM concentrations with buffer and loaded into the sample cell. All buffers were adjusted to a final concentration of 1% (v/v) DMSO. Both, the titrate and titrant solutions were degassed prior to loading the calorimeter cell and injection syringe. […] The integrated heat data were fit with a one-site binding model to determine the apparent values for affinity, enthalpy and stoichiometry of binding.

[2] = Homo sapiens, 786-0, 48 h, read-out: HRE-luc2P reporter assay IC50, 786-O HRE-luc2P cells, 48 h incubation, luciferase luminescence
[3] = read-out: HRE-luc2P reporter assay IC50, 786-O HRE-luc2P cells, 48 h incubation, luciferase luminescence

T1 sequence (Q99814 240-350): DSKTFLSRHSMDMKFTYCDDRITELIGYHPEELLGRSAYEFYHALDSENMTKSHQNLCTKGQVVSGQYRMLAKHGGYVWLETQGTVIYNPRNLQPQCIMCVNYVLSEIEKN
T2 sequence (Q99814 240-350): as above

Compound	IC50 [1]	IC50 (HIF2α-HIF1β complex; [2])	IC50 (HIF2α-HIF1β complex; [3])	Kd (HIF2a (240-350)-G)	IC50 ([1]; read-out: AlphaScreen IC50, disruption of HIF-2α / HIF-1β (ARNT) PAS B interaction, recombinant proteins 143 nM each)
CS(=O)(=O)c1sc(OCC(F)(F)F)c2c1[C@H](O)[C@@H](F)C2 [Example 17a, (4S,5S)-5-fluoro-3-methanesulfonyl-1-(2,2,2-trifluoroethoxy)-4H,5H,6H-cyclopenta[c]thiophen-4-ol]	< 50 nM	50 to 1000 nM	–	–	–
CC(Oc1sc(S(C)(=O)=O)c2c1CC(F)(F)[C@H]2O)C(F)F (single isomer, unassigned) [Example 10a]	< 50 nM	–	> 1000 nM	–	–
CCC(Oc1sc(S(C)(=O)=O)c2c1CC(F)(F)[C@H]2O)C(F)(F)F (single isomer, unassigned) [Example 9a]	< 50 nM	> 1000 nM	–	100 to 1000 nM	–
CC(Oc1sc(S(C)(=O)=O)c2c1CC(F)(F)[C@H]2O)C(F)F (single isomer, unassigned) [Example 14a]	–	–	50 to 1000 nM	–	< 50 nM
COC1(COc2sc(S(C)(=O)=O)c3c2CC(F)(F)[C@H]3O)CCC1 [Example 16a, (4S)-5,5-difluoro-3-methanesulfonyl-1-[(1-methoxycyclobutyl)methoxy]-4H,5H,6H-cyclopenta[c]thiophen-4-ol]	< 50 nM	> 1000 nM	–	100 to 1000 nM	–
CS(=O)(=O)c1sc(OC2CCOCC2)c2c1[C@H](O)C(F)(F)C2 [Example 22a, (4S)-5,5-difluoro-3-methanesulfonyl-1-(oxan-4-yloxy)-4H,5H,6H-cyclopenta[c]thiophen-4-ol]	< 50 nM	–	–	100 to 1000 nM	–
CS(=O)(=O)c1sc(OCCOC(F)(F)F)c2c1[C@H](O)C(F)(F)C2 [Example 23a, (4S)-5,5-difluoro-3-methanesulfonyl-1-[2-(trifluoromethoxy)ethoxy]-4H,5H,6H-cyclopenta[c]thiophen-4-ol]	< 50 nM	> 1000 nM	–	–	–

The remaining lines, values ahead:

IC50 [1]	IC50 (HIF2α-HIF1β complex; [2])	IC50 (HIF2α-HIF1β complex; [3])	Kd (HIF2a (240-350)-G)	IC50 ([1]; read-out: AlphaScreen IC50, disruption of HIF-2α / HIF-1β (ARNT) PAS B interaction, recombinant proteins 143 nM each)	Compound
> 1000 nM	> 1000 nM	–	> 1000 nM	–	CS(=O)(=O)c1sc(Oc2cc(F)cc(Cl)c2)c2c1[C@H](O)C(F)(F)C2 [Example 30a, (4S)-1-(3-chloro-5-fluorophenoxy)-5,5-difluoro-3-methanesulfonyl-4H,5H,6H-cyclopenta[c]thiophen-4-ol]
> 1000 nM	> 1000 nM	–	> 1000 nM	–	CS(=O)(=O)c1sc(Oc2cccc(C#N)c2)c2c1[C@H](O)C(F)(F)C2 [Example 31a, 3-{[(4S)-5,5-difluoro-4-hydroxy-3-methanesulfonyl-4H,5H,6H-cyclopenta[c]thiophen-1-yl]oxy}benzonitrile]
> 1000 nM	> 1000 nM	–	–	–	CCOc1sc(S(C)(=O)=O)c2c1CC(F)(F)[C@H]2O [Example 32a, (4S)-1-ethoxy-5,5-difluoro-3-methanesulfonyl-4H,5H,6H-cyclopenta[c]thiophen-4-ol]
50 to 1000 nM	> 1000 nM	–	–	–	CS(=O)(=O)c1sc(Oc2ccc(F)c(F)c2)c2c1[C@H](O)C(F)(F)C2 [Example 34a, (4S)-1-(3,4-difluorophenoxy)-5,5-difluoro-3-methanesulfonyl-4H,5H,6H-cyclopenta[c]thiophen-4-ol]
> 1000 nM	> 1000 nM	–	> 1000 nM	–	CS(=O)(=O)c1sc(Oc2ccc(F)c(F)c2)c2c1C(O)C(F)(F)C2 (racemic) [Example 24a, 1-(3,4-difluorophenoxy)-5,5-difluoro-3-methanesulfonyl-4H,5H,6H-cyclopenta[c]thiophen-4-ol]
> 1000 nM	> 1000 nM	–	> 1000 nM	–	CS(=O)(=O)c1sc(Oc2ccc(F)cc2)c2c1[C@H](O)C(F)(F)C2 [Example 29a, (4S)-5,5-difluoro-1-(4-fluorophenoxy)-3-methanesulfonyl-4H,5H,6H-cyclopenta[c]thiophen-4-ol]
